# Test results taken from patent EP1022029A1, “NOOTROPIC AGENT” (priority 1997, dated 1999).
# Experiments:
# [1] = tested on: calcium-dependent chloride currents; assay: Calcium-dependent chloride currents in Xenopus oocytes; format: cell-based
# Description: In atropine-free frog Ringer's solution, acetylcholine (Ach) (100 µM) was administered to an oocyte that had not expressed ACh receptors. The holding voltage was -30 mV.
# In Xenopus oocyte expression systems, ACh-evoked currents are known to be composed of ACh-gated channel currents and calcium-dependent chloride currents (R. Miledi et al., J. Physiol. 357, 173, 1984). Nefiracetam, however, had no effect on calcium-dependent chloride currents induced by stimulation from the endogenous muscarinic ACh receptors (FIG. 2).
# [2] = tested on: glutamate release from hippocampal slices; format: cell-based, guinea pig
# normal ACh receptors = target: T1, normal ACh receptors (Tetronarce californica, UniProt P02710+P02712+P02714+P02718); assay: Calcium permeability of normal ACh receptors in oocytes loaded with Calcium Green; format: cell-based; details: normal solution + nefiracetam (1μM); ACh 100 µM; mean ± SD, n=7
# T1 construct: expressed in transfected cells; host or cells: Xenopus oocytes
# T1 sequence (P02710 25-461): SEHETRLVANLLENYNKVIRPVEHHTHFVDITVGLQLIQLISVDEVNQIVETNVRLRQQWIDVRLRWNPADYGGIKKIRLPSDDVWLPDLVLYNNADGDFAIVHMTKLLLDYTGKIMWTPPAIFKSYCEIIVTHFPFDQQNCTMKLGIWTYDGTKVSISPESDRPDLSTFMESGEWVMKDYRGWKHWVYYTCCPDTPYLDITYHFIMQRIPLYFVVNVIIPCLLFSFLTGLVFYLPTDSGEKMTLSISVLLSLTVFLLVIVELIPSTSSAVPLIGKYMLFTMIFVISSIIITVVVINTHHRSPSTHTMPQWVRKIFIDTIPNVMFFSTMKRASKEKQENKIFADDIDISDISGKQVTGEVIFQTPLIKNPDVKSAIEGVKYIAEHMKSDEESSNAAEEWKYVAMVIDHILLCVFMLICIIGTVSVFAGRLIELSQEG
# T1 sequence (P02712 25-493): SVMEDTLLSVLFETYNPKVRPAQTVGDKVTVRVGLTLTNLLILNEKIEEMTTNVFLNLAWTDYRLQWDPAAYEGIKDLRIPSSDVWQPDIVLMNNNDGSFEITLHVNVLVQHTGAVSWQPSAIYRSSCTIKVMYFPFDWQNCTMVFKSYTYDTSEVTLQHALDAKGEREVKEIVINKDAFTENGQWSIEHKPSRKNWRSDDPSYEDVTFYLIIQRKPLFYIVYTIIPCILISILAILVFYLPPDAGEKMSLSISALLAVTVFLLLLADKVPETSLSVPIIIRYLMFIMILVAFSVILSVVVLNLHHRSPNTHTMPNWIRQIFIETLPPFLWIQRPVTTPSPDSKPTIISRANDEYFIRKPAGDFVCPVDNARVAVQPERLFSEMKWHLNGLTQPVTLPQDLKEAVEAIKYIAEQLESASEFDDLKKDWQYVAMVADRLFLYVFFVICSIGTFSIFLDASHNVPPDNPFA
# T1 sequence (P02714 18-506): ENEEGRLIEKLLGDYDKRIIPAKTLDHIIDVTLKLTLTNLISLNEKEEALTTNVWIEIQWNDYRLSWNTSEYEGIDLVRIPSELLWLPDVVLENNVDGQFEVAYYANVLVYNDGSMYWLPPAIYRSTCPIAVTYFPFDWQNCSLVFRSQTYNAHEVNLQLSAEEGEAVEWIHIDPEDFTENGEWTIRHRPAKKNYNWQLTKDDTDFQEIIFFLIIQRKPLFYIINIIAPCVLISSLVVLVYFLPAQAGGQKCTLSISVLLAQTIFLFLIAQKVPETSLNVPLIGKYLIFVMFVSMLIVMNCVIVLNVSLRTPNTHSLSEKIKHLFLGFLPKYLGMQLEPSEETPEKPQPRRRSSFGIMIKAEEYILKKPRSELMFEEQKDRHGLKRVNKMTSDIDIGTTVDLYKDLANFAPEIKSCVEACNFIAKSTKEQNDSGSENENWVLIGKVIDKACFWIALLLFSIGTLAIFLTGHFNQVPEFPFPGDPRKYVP
# T1 sequence (P02718 22-522): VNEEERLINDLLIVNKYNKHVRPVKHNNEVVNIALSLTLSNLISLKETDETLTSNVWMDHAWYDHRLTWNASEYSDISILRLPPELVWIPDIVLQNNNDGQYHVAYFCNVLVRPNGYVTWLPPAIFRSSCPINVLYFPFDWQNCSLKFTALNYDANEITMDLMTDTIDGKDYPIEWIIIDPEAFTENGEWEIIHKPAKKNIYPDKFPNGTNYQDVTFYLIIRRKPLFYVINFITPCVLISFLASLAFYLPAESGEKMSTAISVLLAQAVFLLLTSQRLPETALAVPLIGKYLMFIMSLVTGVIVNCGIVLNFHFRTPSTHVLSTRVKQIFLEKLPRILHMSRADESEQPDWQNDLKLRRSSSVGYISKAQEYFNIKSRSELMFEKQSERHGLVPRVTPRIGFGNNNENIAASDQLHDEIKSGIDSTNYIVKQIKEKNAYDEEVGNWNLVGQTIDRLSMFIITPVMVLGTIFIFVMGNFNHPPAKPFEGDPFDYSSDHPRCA
# Description: An oocyte expressing normal ACh receptors was loaded with Calcium Green. Intracellular calcium ([Ca^2+]i) and evoked currents (IA) were recorded for each of the cases in which administration of ACh (100 µM) was carried out in a Ca^2+-free (extCa^2+(-)) extracellular solution or in an ordinary extracellular solution (Calcium Green TM-1 (Molecular Probes, Inc. USA) was injected to the oocytes). The Ca^2+ rise was normalized by Δ increase (δI) of intensity/base intensity/current amplitude (µA) obtained with calcium-free media.
# In Table 15, each value represents the average from seven oocytes (SD; standard deviation). ACh-evoked currents in the Xenopus oocytes expression system are composed of acetylcholine-gated channel currents and calcium-dependent chloride currents. Nefiracetam had no effect on calcium permeability through the nACh receptor channel. (Table 15). The results from Examples 6a and 6b indicate that nefiracetam modulated acetylcholine-gated channel currents but not calcium-sensitive chloride (Cl^-) currents.
# [3] = tested on: excitatory postsynaptic potential in the brain; assay: Excitatory postsynaptic potential (PS) in the brain in vivo, hippocampal granular cell layer; set-up: species or system mice
# Description: A group of mice were provided. The head of each mouse was fixed, and electrodes were inserted into the granular cell layer of the hippocampal region. PS was recorded. Nefiracetam was intramuscularly injected (7.5 mg/kg). […] This effect was confirmed even after 960 minutes. Thus, the effect obtained in vitro was also confirmed in an in vivo experiment […].
# [4] = tested on: field excitatory postsynaptic potentials (fEPSP); assay: Field excitatory postsynaptic potentials (fEPSP slope) in rat hippocampal slices, CA1; format: cell-based; details: nefiracetam 1 µM applied for 10 minutes
# Description: Long-lasting facilitation of hippocampal synaptic transmission induced by nefiracetam was investigated. The field excitatory postsynaptic potentials (fEPSP) were recorded in the pyramidal cell layer of the CA1 region by electrical stimulation to the Schaeffer collateral pathway in rat hippocampla slices. Nefiracetam (1 µM) was applied to the hippocampla slices for 10 minutes. After nefiracetam application, fEPSPs were gradually augmented. This effect was observed until 240 minutes had passed since the experiment ended (Table 18-2).
# Next, investigation was made regarding whether the above effect exerted by the present drug differs from the onset mechanism for long-term potentiation (LTP) action exerted when tetanic stimulation was used. The following three groups were compared: (group 1) tetanic stimulation alone; (group 2) nefiracetam + tetanic stimulation; (group 3) tetanic stimulation + nefiracetam. As a result, the fEPSPs that had been potentiated by nefiracetam was not potentiated any longer even when subsequent tetanic stimulation was applied. Likewise, the fEPSPs that had been potentiated by tetanic stimulation was not potentiated any longer even after subsequent application of nefiracetam. The amplitudes of potentiation of these two types of fEPSP were the same as the amplitude of tetanic stimulation. […]
structure (smiles),measurement,setting,value
"Cc1cccc(C)c1NC(=O)CN1CCCC1=O [nefiracetam, 2-oxo-1-pyrrolidinylacetic acid 2,6-dimethylanilide]",effect on calcium-dependent chloride currents induced by stimulation from the endogenous muscarinic ACh receptors (FIG. 2),"[1]; oocyte not expressing ACh receptors, atropine-free Ringer, ACh 100 µM",had no effect
same,effect on chloride ion (Cl^-) currents evoked by Ca^2+ influx through the nACh receptor channels,"[1]; oocytes, data not shown",had no effect
same,effect on glutamate release,"[2]; 1 µM, depolarization by electrical stimulation",significantly increased
same,Amount of released glutamate,"[2]; St (ES+) electrical stimulation, nefiracetam 1 µM, tetrodotoxin 0.5 µM, α-bungarotoxin 50 nM, mecamylamine 3 µM",3.23 ± 0.5 (a) nmol/mg protein/10min.
same,normalized Ca^2+ rise (Δ increase of intensity / base intensity / current amplitude),normal ACh receptors,6.6 ± 1.4
same,time after which potentiation of the excitatory postsynaptic potential was still confirmed,"[3]; 7.5 mg/kg intramuscularly, mice",≥ 960 min
same,effect on excitatory postsynaptic potential (PS) in vivo,[3]; administered to animals,significant potentiation
same,time until which augmentation of fEPSPs was observed,[4],≥ 240 min
